According to PubChem BioAssay (NCI):
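Cells were grown in 96-well plates and exposed to each compound for 48 hours at five concentrations; endpoints were interpolated linearly between bracketing concentrations, or set to the highest concentration if not reached. TGI is the concentration that stops growth completely.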

Legend:
Assay in all cases: NCI-60 cell line screen, 48 h
[1] = system: SK-MEL-28 melanoma
[2] = system: CCRF-CEM leukemia
[3] = system: SF-539 CNS
[4] = system: MDA-MB-231 breast
[5] = system: UO-31 renal
[6] = system: HL-60(TB) leukemia
[7] = system: KM12 colon
[8] = system: NCI-H460 lung
[9] = system: M14 melanoma
[10] = system: SNB-75 CNS
[11] = system: HT29 colon
[12] = system: COLO 205 colon
[13] = system: OVCAR-3 ovarian

Structure (SMILES) | TGI [1] [µM] | TGI [2] [µM] | TGI [3] [µM] | TGI [4] [µM] | TGI [5] [µM] | TGI [6] [µM] | TGI [7] [µM] | TGI [8] [µM] | TGI [9] [µM] | TGI [10] [µM] | TGI [11] [µM] | TGI [12] [µM] | TGI [13] [µM]
Cc1c(/C=N/NC(=S)Nc2cccc(Cl)c2)c(=O)n(-c2ccccc2)n1C | > 100 | > 100 | 33 | 43.8 | 88.7 | > 100 | > 100 | 21.8 | 40.1 | 28.3 | > 100 | > 100 | –
O=C1CSC(/C=C/c2ccccc2)N1c1ccc(-c2ccc(-n3c(-c4ccccc4)nc4ccccc4c3=O)cc2)cc1 (stereo not drawn) | 53.3 | 64.5 | – | > 100 | 50.6 | > 100 | 35.8 | > 100 | 35.4 | 8.52 | 34 | 36.6 | 84.6
Cc1nc(Cl)c2sc(=S)n(-c3ccc(F)cc3)c2n1 | 10.6 | > 100 | – | 20.7 | 3.17 | 43.2 | 25.3 | 26.5 | 8.38 | 18.1 | 5.51 | 16.6 | 7.02
C=C(C)C#CC(O)(C(=O)OC1CCN(C)CC1)C(C)C (stereo not drawn) | > 100 | > 100 | > 100 | > 100 | > 100 | > 100 | > 100 | – | > 100 | > 100 | > 100 | > 100 | > 100
CCN(CC)c1ccc2c(c1)OC(=O)C(c1nnc(-c3ccc([N+](=O)[O-])cc3)o1)C2 (stereo not drawn) | > 100 | > 100 | – | > 100 | > 100 | > 100 | > 100 | > 100 | > 100 | > 100 | > 100 | > 100 | > 100
COc1ccc(C2=C(Cl)c3cc(OC)c(OC)cc3C2=O)cc1OC | – | > 100 | 35.9 | 36.5 | 30.2 | > 100 | 32.2 | – | 18.1 | > 100 | > 100 | 16.2 | 6.56
O=C1c2cccc3cccc(c23)C(=O)N1CCCNCCCCNCCCN1C(=O)c2cccc3cccc(c23)C1=O | 0.938 | 0.205 | 1.57 | 1.09 | 5.51 | 1.93 | 3.66 | – | 1.94 | 1.01 | 1.27 | 1.25 | 4.58
Cn1c(NN)nc(-c2ccc([N+](=O)[O-])cc2)c(C#N)c1=O | 25 | > 100 | – | 28.4 | 33.8 | > 100 | 30.1 | 36.4 | 25 | 34.7 | 28.7 | 47.7 | 34.3
Oc1ccc(Cl)cc1-c1[nH]c(=S)nc(-c2ccccc2)c1Cl | > 100 | > 100 | – | 97.2 | > 100 | > 100 | > 100 | > 100 | > 100 | 70.1 | > 31.6 | > 100 | > 100
COC(=O)c1ccccc1/C=C1/Cc2cccc(C)c2C1=O | > 100 | > 100 | > 100 | > 100 | > 100 | > 100 | > 100 | > 100 | – | > 100 | > 100 | > 100 | > 100
O=c1[nH]c(=O)n(C2CC(O)C(CO)O2)cc1NN=NCCc1ccccc1 (stereo not drawn) | > 100 | > 100 | – | > 100 | > 100 | > 100 | > 100 | > 100 | > 100 | > 100 | > 100 | > 100 | > 100
COc1cc(O)c2c(=O)c(OC)c(-c3ccc4c(c3)OCO4)oc2c1 | > 100 | > 100 | > 74.9 | > 77.4 | > 100 | > 100 | > 100 | > 100 | > 100 | 14.9 | > 100 | > 100 | –
CC1=C(C(=O)N[C@@H](Cc2ccccc2)C(=O)O)N2C(=O)[C@@H](NC(=O)[C@@H](N)CC(C)C)[C@H]2SC1 | > 100 | > 100 | > 100 | > 100 | – | > 100 | > 100 | > 100 | > 100 | > 100 | – | > 100 | > 100
OC(CC(CC(O)(C(F)(F)Cl)C(F)(F)Cl)=NNc1ccccc1)(C(F)(F)Cl)C(F)(F)Cl | 8.06 | > 10 | 8.75 | 6.63 | – | > 10 | 7.54 | 7.85 | > 10 | 7.69 | > 10 | 3.51 | 6.38
CO[C@H]1O[C@@H]2CO[C@@H](c3ccccc3)O[C@H]2[C@@H]2CC=CCC[C@]12O | > 100 | > 100 | – | > 100 | > 100 | 67 | > 100 | > 100 | > 100 | > 100 | > 100 | > 100 | > 100
